Source: PubChem BioAssay (NCI)
Values after ≈ are worked out from the molar mass of the structure shown. Values joined by “and” are separate entries in the source; they are usually repeats but may differ in a detail not shown here. Identical values can stand only once.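 Grown in 96-well plates, cells were treated for 48 hours with each compound at five concentrations. Insufficient inhibition: endpoint recorded as highest concentration tested. GI50 = concentration required for 50% inhibition of growth. TGI marks complete inhibition of growth.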

What was measured:
Test in all cases: NCI tumour cell line growth inhibition, 48 h
RXF-631 renal = system: RXF-631 renal
SN12K1 renal = system: SN12K1 renal
P388 leukemia = system: P388 leukemia
P388/ADR leukemia = system: P388/ADR leukemia

| Structure (SMILES) | TGI (RXF-631 renal) | other results |
| --- | --- | --- |
| CSc1nc2c(nc(N)n2C2OC(COC(C)=O)C(OC(C)=O)C(OC(C)=O)C2OC(C)=O)c(=O)n1C (configuration not stated) | > 100 µM | – |
| C=C(C)C1CC=C(C)CC1 (configuration not stated) | > 100 µM and 1720 µM | GI50 (RXF-631 renal): > 100 µM |
| Cn1c(=O)c2ccc(-c3ccc(Br)cc3)nc2n(C)c1=O | > 100 µM | – |
| C/C=C(/CCC1NCCC2c3ccccc3NC12)[Si](C)(C)C (configuration not stated) | 23.4 µM | – |
| COC(=O)NN1C(C)=C(C(=O)OC)C2(C#N)C(C(=O)OC)=C(C)N(NC(=O)OC)C12N (configuration not stated) | > 100 µM | – |
| COC(C(=O)C(O)C(C)O)C1Cc2cc3cc(OC4CC(OC5CC(O)C(O)C(C)O5)C(O)C(C)O4)c(C)c(O)c3c(O)c2C(=O)C1OC1CC(OC2CC(O)C(OC3CC(C)(O)C(O)C(C)O3)C(C)O2)C(O)C(C)O1 (configuration not stated) | – | GI50 (SN12K1 renal): 0.0304 ng/mL (≈ 0.028 nM); TGI (SN12K1 renal): 0.15 µg/mL; GI50 (P388 leukemia): 0.056 ng/mL (≈ 0.0516 nM); TGI (P388 leukemia): 0.798 ng/mL (≈ 0.735 nM); GI50 (P388/ADR leukemia): 1.32 ng/mL (≈ 1.22 nM); TGI (P388/ADR leukemia): 0.0204 µg/mL (≈ 18.8 nM) |
| Cn1c2ccccc2c(=O)c2c(O)cc3c(c21)CC(C1(C)CO1)O3 (configuration not stated) | > 33.6 µM | – |
| C=C1COC(O)(C2OCOC(C3CC(=O)NC(=O)C3)C2O)C1C (configuration not stated) | 0.0249 µM and 0.0329 µM | – |
| C/C(=N\NC(=S)N1CCN(C2CCCCCC2)CC1)c1ccccn1 | – | TGI (SN12K1 renal): 1560 nM |
| Cc1cc(=O)n2c3c(c4c(cc13)c(CO)cc(=O)n4C)OC2 | 38.9 µM | – |
| Cc1cc(Cl)ccc1NC(=O)CCCC(=O)C1CCC/C1=N\NC(=O)CC#N (configuration not stated) | > 100 µM | – |
